This is an account of results in PubChem BioAssay (NCI).

Test systems include DU-145 prostate; EKVX NSCLC; KM12 colon; MALME-3M melanoma; MDA-MB-231 breast; NCI-H23 lung; OVCAR-3 ovarian; SF-539 CNS; SK-MEL-2 melanoma; SNB-75 CNS.
Common to all, as to assay: NCI tumour cell line growth inhibition, 48 h

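Growth conditions: 96-well plates. Treatment: test compound, 48 hours, 5 concentrations. Analysis: linear interpolation between bracketing concentrations; unreached endpoints set to highest concentration. GI50 is the concentration that inhibits growth by half. The concentration for full growth arrest is given as TGI.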

Regarding `O=C(Nc1ccc2[nH]c(C(=O)N3CC(CCl)c4c3cc([N+](=O)[O-])c3ccccc43)cc2c1)c1cc2ccccc2o1` (stereo not given), the GI50 in the assay with DU-145 prostate, in the assay with EKVX NSCLC, in the assay with KM12 colon, in the assay on MALME-3M melanoma, with MDA-MB-231 breast and in the assay on NCI-H23 lung was more than 1100 µM throughout. Further, the GI50 in the assay with OVCAR-3 ovarian and with SK-MEL-2 melanoma was more than 1100 µM in each case. In addition, the TGI with DU-145 prostate, in the assay on EKVX NSCLC, with KM12 colon, with MALME-3M melanoma, in the assay with MDA-MB-231 breast and with NCI-H23 lung was more than 1100 µM each time. Also, the TGI in the assay on OVCAR-3 ovarian, in the assay with SF-539 CNS and in the assay with SK-MEL-2 melanoma was more than 1100 µM throughout.
`CC(=O)C1COC(O)C1C` (stereo not given): the TGI with DU-145 prostate was 70.8 µM; with EKVX NSCLC, more than 100 µM; with KM12 colon, 28 µM; in the assay with MDA-MB-231 breast, 68 µM; with NCI-H23 lung it was 31.7 µM; in the assay on OVCAR-3 ovarian, 37 µM. In addition, the TGI with SF-539 CNS turned out to be 45.4 µM; with SK-MEL-2 melanoma, 29.1 µM; in the assay with SNB-75 CNS it was 70.4 µM.
For the molecule `CCN(CC)CCCC(C)Nc1c2ccc(Cl)cc2nc2cc(OC)c(OC)cc12` (stereo not given), the GI50 in the assay with DU-145 prostate was 2.02 µM; in the assay on EKVX NSCLC, 1.78 µM; with KM12 colon it was 2.54 µM; with MALME-3M melanoma, 1.86 µM; in the assay with MDA-MB-231 breast it was 1.52 µM; in the assay with NCI-H23 lung, 1.48 µM. Moreover, the GI50 in the assay with OVCAR-3 ovarian is 1.98 µM; in the assay with SF-539 CNS, 1640 nM; in the assay with SK-MEL-2 melanoma it was 2.64 µM; in the assay with SNB-75 CNS, 1310 nM. Further, the TGI in the assay on DU-145 prostate came to 11.2 µM; in the assay with EKVX NSCLC, 5.06 µM; with KM12 colon it was 10.6 µM; in the assay with MALME-3M melanoma, 3.52 µM; with MDA-MB-231 breast, 3.97 µM; with NCI-H23 lung, 3.25 µM. The TGI in the assay on OVCAR-3 ovarian came out at 7.63 µM; in the assay with SF-539 CNS, 3.19 µM; in the assay with SK-MEL-2 melanoma, 5.73 µM; in the assay on SNB-75 CNS, 2.6 µM.
As to `COc1cc(F)cc([C@@H](CO)NC(=O)[C@@H](C)N2Cc3ccc(-c4nc(NC5CCOCC5)ncc4Cl)cc3C2=O)c1`, the GI50 was 12.3 µM with DU-145 prostate; 0.108 µM in the assay with EKVX NSCLC; 0.0988 µM in the assay on KM12 colon; less than 0.01 µM in the assay on MALME-3M melanoma; less than 0.0175 µM in the assay on MDA-MB-231 breast; less than 0.0133 µM with NCI-H23 lung. Moreover, the GI50 is 16.5 µM with OVCAR-3 ovarian, 5330 nM in the assay with SF-539 CNS and 12500 nM in the assay on SNB-75 CNS. For the same molecule, the TGI was more than 84.2 µM in the assay with DU-145 prostate; 66 µM in the assay with EKVX NSCLC; 37.4 µM in the assay on KM12 colon; less than 0.01 µM with MALME-3M melanoma; 18.7 µM with MDA-MB-231 breast; 20.2 µM in the assay on NCI-H23 lung. In addition, the values for the TGI in the assay with OVCAR-3 ovarian, in the assay with SF-539 CNS and in the assay with SNB-75 CNS were more than 68.6 µM, 33.9 µM and 54 µM, respectively.
For `O=C(/C=C/c1cccc([N+](=O)[O-])c1)c1ccc(O)c(CN2CCN(c3cc4c(cc3F)c(=O)c(C(=O)O)cn4C3CC3)CC2)c1`, the GI50 in the assay on DU-145 prostate is 1.41 µM; in the assay on EKVX NSCLC, 1.71 µM; in the assay on KM12 colon, 1.33 µM; in the assay with MALME-3M melanoma, 1.93 µM; in the assay on MDA-MB-231 breast it was 1.89 µM; in the assay with NCI-H23 lung, 1.81 µM. Moreover, the GI50 in the assay with OVCAR-3 ovarian is 1.77 µM; in the assay with SF-539 CNS it was 1190 nM; in the assay on SK-MEL-2 melanoma, 2.35 µM; with SNB-75 CNS, 1220 nM. Also, the TGI worked out at 2.74 µM in the assay on DU-145 prostate; 3.32 µM with EKVX NSCLC; 3.4 µM with KM12 colon; 4.25 µM in the assay on MALME-3M melanoma; 4.02 µM with MDA-MB-231 breast; 3.83 µM with NCI-H23 lung. The TGI was determined as 3.41 µM with OVCAR-3 ovarian, 2.47 µM in the assay with SF-539 CNS, 5.17 µM in the assay with SK-MEL-2 melanoma and 2.51 µM in the assay on SNB-75 CNS.
On to `COc1ccc(-c2nn(-c3cccc(Cl)c3)cc2-c2c(C#N)c(=O)n3[nH]c(-c4ccc(C)cc4)nc3c2C#N)cc1`, for which the GI50 is 2.74 µM with DU-145 prostate; 1.62 µM in the assay on EKVX NSCLC; 3.39 µM in the assay on KM12 colon; 2.16 µM in the assay with MALME-3M melanoma; 1.16 µM in the assay with MDA-MB-231 breast; 3.18 µM in the assay on NCI-H23 lung. Also, the GI50 with OVCAR-3 ovarian is 6.52 µM; in the assay on SF-539 CNS it was 1280 nM; in the assay with SK-MEL-2 melanoma, 1.41 µM; in the assay with SNB-75 CNS it was 828 nM. Also, the TGI with DU-145 prostate came out at 21.9 µM; in the assay with EKVX NSCLC, 9.2 µM; in the assay with KM12 colon, 24.2 µM; in the assay with MALME-3M melanoma, 9.12 µM; with MDA-MB-231 breast it was 5.25 µM; in the assay on NCI-H23 lung, 10.6 µM. Moreover, the TGI was determined as 13.7 µM with OVCAR-3 ovarian, 3.61 µM in the assay on SF-539 CNS, 4.02 µM in the assay with SK-MEL-2 melanoma and 2.4 µM with SNB-75 CNS.
As for `CCn1c2ccc(C(=O)CCCN(C)C)cc2c2cc(C(=O)CCCN(C)C)ccc21`, the TGI was determined as 8.34 µM in the assay on DU-145 prostate; 6.79 µM in the assay with EKVX NSCLC; 11.2 µM in the assay on KM12 colon; 11 µM with MALME-3M melanoma; 3.37 µM in the assay with MDA-MB-231 breast; 4.29 µM in the assay on NCI-H23 lung. Also, the TGI came out at 6.72 µM with OVCAR-3 ovarian, 2.79 µM with SF-539 CNS, 3.97 µM in the assay with SK-MEL-2 melanoma and 11.4 µM in the assay with SNB-75 CNS.
As to `COc1cc2c(cc1OC)C(CC1(O)CCCCC1)N(S(=O)(=O)c1ccc(C)cc1)CC2` (stereo not given), the GI50 in the assay on DU-145 prostate, in the assay on KM12 colon, in the assay on MALME-3M melanoma, in the assay on MDA-MB-231 breast, in the assay on NCI-H23 lung and with OVCAR-3 ovarian was more than 10 µM throughout. In addition, the GI50 in the assay on SF-539 CNS was more than 10000 nM; in the assay with SK-MEL-2 melanoma, more than 10 µM; in the assay on SNB-75 CNS it was more than 10000 nM. Moreover, the TGI in the assay with DU-145 prostate, with KM12 colon, in the assay with MALME-3M melanoma, with MDA-MB-231 breast, with NCI-H23 lung and in the assay on OVCAR-3 ovarian was more than 10 µM in each case. For the same molecule, the TGI in the assay with SF-539 CNS, in the assay with SK-MEL-2 melanoma and with SNB-75 CNS was more than 10 µM each time.
For the molecule `CC1(C)CCC[C@]2(C)c3cc(O)ccc3CC[C@@H]12`, the GI50 is 16.4 µM in the assay with DU-145 prostate; 21.5 µM in the assay on EKVX NSCLC; 14.1 µM in the assay with KM12 colon; 16.2 µM with MDA-MB-231 breast; 17.3 µM with NCI-H23 lung; 17 µM in the assay on OVCAR-3 ovarian. In addition, the GI50 was 18300 nM in the assay on SF-539 CNS, 20.1 µM in the assay on SK-MEL-2 melanoma and 12400 nM in the assay with SNB-75 CNS. For the same molecule, the TGI in the assay with DU-145 prostate was 30.6 µM; in the assay on EKVX NSCLC, 36.7 µM; in the assay with KM12 colon it was 31.2 µM; in the assay with MDA-MB-231 breast, 30.4 µM; in the assay with NCI-H23 lung it was 34.3 µM; in the assay on OVCAR-3 ovarian, 34.3 µM. Further, the results for the TGI in the assay on SF-539 CNS, in the assay on SK-MEL-2 melanoma and with SNB-75 CNS were 33.1 µM, 43 µM and 27.5 µM, respectively.
